Each structure is given as a SMILES string. Where two headings read alike, the source gives them in different places. Some results are limits rather than exact numbers.

One experiment has as its target human TACE (Homo sapiens (Human), UniProt P78536). Briefly: biochemical.
The target in a further experiment is human ADAMTS6 (Homo sapiens (Human), UniProt Q9UKP5). Briefly: hADAMTS-6 fluorescent based protease assay (520 MMP FRET substrate XII). Conditions: 37° C. for 2 h; read-out: hADAMTS-6 potency IC50. In kind it is biochemical. An outline of the steps: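 ADAMTS6 (0.73 nM final) in 25 mM Tris pH 8.0, 0.05% CHAPS, 2.5 mM CaCl2 with compound dilution series (top 20 μM, 1/5 steps). Reaction started with 520 MMP FRET Substrate XII, incubated 2 h at 37 °C. Substrate cleavage read by fluorescence ex485/em530; IC50 determined.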

The target in another experiment is human MMP14 (Homo sapiens (Human), UniProt P50281). Briefly: hMMP14 assay (390 MMP FRET Substrate I). The experiment is classed as biochemical. To be noted: human MMP14 (Biomol), read-out: hMMP-14 potency IC50.
For experiment [1], the target named is T1, human MMP13 (Homo sapiens (Human), UniProt P45452). In words: hMMP13 assay, Protocol 2 (390 MMP FRET Substrate I, Enzo enzyme). Conditions: Protocol 2, human MMP13 (Enzo Life Sciences), read-out: hMMP-13 potency IC50. The experiment is classed as biochemical. The protocol: (§1) Human MMP13 is preactivated by incubated the enzyme in the same buffer complemented with 1 mM freshly prepared p-Aminophenylmercuric acetate (AMPA) for 1 h at 37° C.

The target of experiment [2] is T2, human ADAMTS-5 (Homo sapiens (Human), UniProt Q9UNA0). In words: hADAMTS-5 TBIS-1 cleavage assay, Protocol 3. To be noted: 90 min at 37° C., read-out: hADAMTS-5 potency IC50. In kind it is biochemical.
Procedure: The reaction is initiated by adding to the assay plate TBIS-1 (10 μL, 4.5 μM, Anaspec) in the same buffer.
Finally, the fluorescence is read on the Envision (Perkin Elmer) after an incubation of 90 min at 37° C. (Excitation 485 nm, emission 530).
For the next experiment, the target named is human ADAMTS4 (Homo sapiens (Human), UniProt O75173). In words: hADAMTS-4 TBIS-1 cleavage assay, Protocol 2. The experiment is classed as biochemical.
For a further experiment, the target named is rnADAMTS-5 (1-564-6H) (Rattus norvegicus (Rat), UniProt Q6TY19). In words: Rat ADAMTS-5 TBIS-1 cleavage assay. To be noted: 120 min at 37° C.; read-out: Rat ADAMTS-5 potency IC50. In kind it is biochemical.
The target of experiment [3] is T2, human ADAMTS-5. Briefly: hADAMTS-5 TBIS-1 cleavage assay, Protocol 2. The experiment is classed as biochemical. To be noted: 45 min at 37° C., read-out: ADAMTS5 potency IC50.
Experiment [4] deals with T1, human MMP13. Briefly: hMMP13 assay, Protocol 1 (390 MMP FRET Substrate I, Chemicon enzyme). Conditions: Protocol 1, human MMP13 (Chemicon), read-out: hMMP-13 potency IC50. The experiment is classed as biochemical. The protocol:
as §1

[5] abbreviates: Protocol 2, 180 min at 37° C., read-out: ADAMTS4 potency IC50.

Chain of human ADAMTS4 (O75173 213-837): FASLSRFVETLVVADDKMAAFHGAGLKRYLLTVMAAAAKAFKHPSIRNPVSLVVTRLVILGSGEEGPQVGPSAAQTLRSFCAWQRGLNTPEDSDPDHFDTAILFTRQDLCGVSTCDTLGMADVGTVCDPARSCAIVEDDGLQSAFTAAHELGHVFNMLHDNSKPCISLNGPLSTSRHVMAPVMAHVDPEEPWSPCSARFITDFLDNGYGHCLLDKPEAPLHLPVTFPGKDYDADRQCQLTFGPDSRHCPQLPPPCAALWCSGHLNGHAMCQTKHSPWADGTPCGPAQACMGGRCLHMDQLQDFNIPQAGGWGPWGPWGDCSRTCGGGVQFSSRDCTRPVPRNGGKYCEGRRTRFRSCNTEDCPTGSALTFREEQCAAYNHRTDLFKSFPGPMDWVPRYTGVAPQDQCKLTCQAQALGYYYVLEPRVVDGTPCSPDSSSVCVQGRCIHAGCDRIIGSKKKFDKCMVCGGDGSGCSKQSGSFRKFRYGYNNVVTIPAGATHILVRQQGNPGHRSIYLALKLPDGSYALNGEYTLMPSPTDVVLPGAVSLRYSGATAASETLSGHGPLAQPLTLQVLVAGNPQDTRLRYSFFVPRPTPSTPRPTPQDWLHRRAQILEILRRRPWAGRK
Chain of rnADAMTS-5 (1-564-6H) (Q6TY19 entry or part of it): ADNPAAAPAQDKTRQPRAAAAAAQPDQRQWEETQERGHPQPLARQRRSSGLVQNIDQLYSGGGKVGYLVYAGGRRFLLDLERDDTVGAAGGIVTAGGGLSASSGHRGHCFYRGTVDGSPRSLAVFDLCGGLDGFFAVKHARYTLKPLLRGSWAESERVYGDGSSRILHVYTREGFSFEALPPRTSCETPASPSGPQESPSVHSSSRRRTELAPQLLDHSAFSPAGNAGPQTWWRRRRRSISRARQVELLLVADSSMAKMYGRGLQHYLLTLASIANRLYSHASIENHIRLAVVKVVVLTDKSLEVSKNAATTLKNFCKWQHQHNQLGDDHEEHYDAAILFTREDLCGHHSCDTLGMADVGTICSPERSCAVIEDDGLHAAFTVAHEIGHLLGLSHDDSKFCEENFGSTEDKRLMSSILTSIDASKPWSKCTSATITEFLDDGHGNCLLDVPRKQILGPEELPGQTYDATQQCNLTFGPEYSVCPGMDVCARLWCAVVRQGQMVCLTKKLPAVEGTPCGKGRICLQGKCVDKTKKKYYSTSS
Chain of human ADAMTS6 (Q9UKP5 other isoform, or with tags, fused parts or gaps): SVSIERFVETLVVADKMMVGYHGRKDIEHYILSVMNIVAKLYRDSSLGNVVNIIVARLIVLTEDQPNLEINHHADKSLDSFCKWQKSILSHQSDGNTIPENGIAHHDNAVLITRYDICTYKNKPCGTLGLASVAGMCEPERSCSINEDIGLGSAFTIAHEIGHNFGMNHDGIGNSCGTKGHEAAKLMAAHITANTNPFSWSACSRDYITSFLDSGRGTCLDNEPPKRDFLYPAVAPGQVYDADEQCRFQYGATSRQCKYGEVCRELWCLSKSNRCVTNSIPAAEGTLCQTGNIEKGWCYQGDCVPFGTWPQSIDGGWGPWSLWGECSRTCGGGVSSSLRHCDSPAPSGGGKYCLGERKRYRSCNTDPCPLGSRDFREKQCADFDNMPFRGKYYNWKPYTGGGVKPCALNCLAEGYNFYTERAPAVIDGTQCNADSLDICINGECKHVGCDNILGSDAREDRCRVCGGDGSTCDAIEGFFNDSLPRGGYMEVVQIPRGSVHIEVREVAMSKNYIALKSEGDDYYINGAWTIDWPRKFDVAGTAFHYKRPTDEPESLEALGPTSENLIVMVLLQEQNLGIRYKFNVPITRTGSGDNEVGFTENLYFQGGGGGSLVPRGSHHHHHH
T2 sequence (Q9UNA0 262-930): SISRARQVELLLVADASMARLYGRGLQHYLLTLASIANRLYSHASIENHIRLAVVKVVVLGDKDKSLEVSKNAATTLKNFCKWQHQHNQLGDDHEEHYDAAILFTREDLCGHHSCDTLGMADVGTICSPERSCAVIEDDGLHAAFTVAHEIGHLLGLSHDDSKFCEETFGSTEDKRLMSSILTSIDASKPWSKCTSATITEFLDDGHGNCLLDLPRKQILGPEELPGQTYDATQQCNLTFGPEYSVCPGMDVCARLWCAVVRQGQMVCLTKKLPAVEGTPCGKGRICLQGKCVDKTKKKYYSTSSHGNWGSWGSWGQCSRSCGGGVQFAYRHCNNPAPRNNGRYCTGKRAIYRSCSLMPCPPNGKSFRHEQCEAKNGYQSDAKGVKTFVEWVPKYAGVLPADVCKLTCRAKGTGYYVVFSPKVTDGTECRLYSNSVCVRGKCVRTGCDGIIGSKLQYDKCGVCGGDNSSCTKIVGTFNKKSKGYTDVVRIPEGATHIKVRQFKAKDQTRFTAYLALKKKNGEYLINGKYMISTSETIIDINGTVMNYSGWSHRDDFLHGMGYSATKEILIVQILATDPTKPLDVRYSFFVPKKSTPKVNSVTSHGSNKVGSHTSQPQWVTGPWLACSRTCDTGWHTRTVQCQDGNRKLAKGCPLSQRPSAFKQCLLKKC
Chain of human TACE (P78536 215-671): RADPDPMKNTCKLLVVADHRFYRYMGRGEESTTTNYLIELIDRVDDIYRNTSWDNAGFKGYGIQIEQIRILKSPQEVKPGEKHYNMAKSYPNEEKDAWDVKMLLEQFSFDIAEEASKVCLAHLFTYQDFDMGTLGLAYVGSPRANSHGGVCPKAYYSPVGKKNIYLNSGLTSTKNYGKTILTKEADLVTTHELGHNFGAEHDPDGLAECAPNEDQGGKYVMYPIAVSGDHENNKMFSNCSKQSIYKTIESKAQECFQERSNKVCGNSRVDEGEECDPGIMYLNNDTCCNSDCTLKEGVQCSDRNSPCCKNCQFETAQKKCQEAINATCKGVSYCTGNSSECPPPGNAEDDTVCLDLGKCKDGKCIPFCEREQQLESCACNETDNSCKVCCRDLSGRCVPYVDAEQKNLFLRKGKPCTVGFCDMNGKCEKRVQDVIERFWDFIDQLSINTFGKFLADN
Procedure for human MMP14: The basis for the assay is the cleavage of the substrate 390 MMP FRET Substrate I (Anaspec Cat #AS-27076) by human MMP14 (Biomol, Cat #SE-259).
The reaction is initiated by adding to the assay plate 390 MMP FRET Substrate I (10 μL, 2.5 μM) in the same buffer.
Finally, the fluorescence is read on the Envision (Perkin Elmer) after an incubation of 60 min at room temperature (Excitation 485 nm, Emission 530).
Procedure for human TACE: Finally, the fluorescence is read on the Envision (Perkin Elmer) after an incubation of 75 min at room temperature (Excitation 485 nm, Emission 530).

As for `COc1cc(N2CCN(C(=O)[C@@H](C)C[C@@]3(CN4CCC(F)(F)C4)NC(=O)NC3=O)CC2)cc(F)c1F` (stereo in doubt) [Cpd 52, 5-[3-[4-(3,4-difluoro-5-methoxy-phenyl)piperazin-1-yl]-2-methyl-3-oxo-propyl]-5-[(3,3-difluoropyrrolidin-1-yl)methyl]imidazolidine-2,4-dione], the IC50 on human TACE is greater than 100 nM; at human ADAMTS6, 0.001 to 25 nM; at human MMP14, greater than 100 nM; on human MMP13 [1], greater than 100 nM; at human ADAMTS-5 [2], 50 to 100 nM; on human ADAMTS4 (setting [5]) it was greater than 100 nM. At rnADAMTS-5 (1-564-6H), the IC50 fell in the range of 50 to 100 nM.

With `CC1(CCC(=O)N2CCN(c3ccc(OC(F)(F)F)cc3)CC2)NC(=O)NC1=O` (centres unmarked) [Cpd 3, 5-methyl-5-[3-oxo-3-[4-[4-(trifluoromethoxy)phenyl]piperazin-1-yl]propyl]imidazolidine-2,4-dione], the IC50 against human TACE, on human ADAMTS6, at human ADAMTS-5 [3], at human MMP13 [4] and on human ADAMTS4 (setting [5]) was greater than 100 nM in each case.

On to `CC1(CCC(=O)N2CCN(c3ccccc3OC(F)(F)F)CC2)NC(=O)NC1=O` (centres unmarked) [Cpd 4, 5-methyl-5-[3-oxo-3-[4-[2-(trifluoromethoxy)phenyl]piperazin-1-yl]propyl]imidazolidine-2,4-dione], for which the IC50 on human ADAMTS6, at human ADAMTS-5 [3] and on human ADAMTS-5 [2] was greater than 100 nM throughout.

With `COc1ccc(N2CCN(C(=O)CCC3(C)NC(=O)NC3=O)CC2)cc1` (centres unmarked) [Cpd 5, 5-[3-[4-(4-methoxyphenyl)piperazin-1-yl]-3-oxo-propyl]-5-methyl-imidazolidine-2,4-dione], the IC50 at human ADAMTS6 and at human ADAMTS-5 [3] was greater than 100 nM each time.

Turning to `COc1cccc(N2CCN(C(=O)CCC3(c4cccnc4)NC(=O)NC3=O)CC2)c1` (centres unmarked) [Cpd 6, 5-[3-[4-(3-methoxyphenyl)piperazin-1-yl]-3-oxo-propyl]-5-(3-pyridyl)imidazolidine-2,4-dione], the IC50 at human TACE, on human ADAMTS6, on human ADAMTS-5 [3], on human MMP13 [4] and at rnADAMTS-5 (1-564-6H) was greater than 100 nM each time.

Consider `COc1ccccc1N1CCN(C(=O)CCC2(C)NC(=O)NC2=O)CC1` (centres unmarked) [Cpd 7, 5-[3-[4-(2-methoxyphenyl)piperazin-1-yl]-3-oxo-propyl]-5-methyl-imidazolidine-2,4-dione], for which the IC50 on human ADAMTS6, on human ADAMTS-5 [3] and on human ADAMTS-5 [2] was greater than 100 nM throughout.

Consider `COc1cccc(N2CCN(C(=O)CCC3(c4ccccn4)NC(=O)NC3=O)CC2)c1` (centres unmarked) [Cpd 8, 5-[3-[4-(3-methoxyphenyl)piperazin-1-yl]-3-oxo-propyl]-5-(2-pyridyl)imidazolidine-2,4-dione], for which the IC50 on human TACE was greater than 100 nM; on human ADAMTS6, greater than 100 nM; on human ADAMTS-5 [3], greater than 100 nM; on human MMP13 [4], greater than 100 nM; against human ADAMTS4, 50 to 100 nM; at rnADAMTS-5 (1-564-6H) it was greater than 100 nM.

As to `COc1cc(N2CCN(C(=O)CCC3(C)NC(=O)NC3=O)CC2)ccc1F` (centres unmarked) [Cpd 9, 5-[3-[4-(4-fluoro-3-methoxy-phenyl)piperazin-1-yl]-3-oxo-propyl]-5-methyl-imidazolidine-2,4-dione], the IC50 was greater than 100 nM against human TACE; 50 to 100 nM at human ADAMTS6; greater than 100 nM at human ADAMTS-5 [3]; greater than 100 nM at human MMP13 [4]; greater than 100 nM on human ADAMTS-5 [2]; greater than 100 nM on rnADAMTS-5 (1-564-6H).

Consider `COc1cc(N2CCN(C(=O)CCC3(C)NC(=O)NC3=O)CC2)ccc1Cl` (centres unmarked) [Cpd 10, 5-[3-[4-(4-chloro-3-methoxy-phenyl)piperazin-1-yl]-3-oxo-propyl]-5-methyl-imidazolidine-2,4-dione], for which the half-maximal inhibitory concentration (IC50) was greater than 100 nM against human TACE; 25 to 50 nM at human ADAMTS6; greater than 100 nM at human ADAMTS-5 [3]; greater than 100 nM on human MMP13 [4]; greater than 100 nM on human ADAMTS-5 [2]; greater than 100 nM at human ADAMTS4 (setting [5]). Besides, the IC50 at rnADAMTS-5 (1-564-6H) was greater than 100 nM.

On to `COc1cc(OC)cc(N2CCN(C(=O)CCC3(C)NC(=O)NC3=O)CC2)c1` (centres unmarked) [Cpd 11, 5-[3-[4-(3,5-dimethoxyphenyl)piperazin-1-yl]-3-oxo-propyl]-5-methyl-imidazolidine-2,4-dione], for which the IC50 on human TACE, at human ADAMTS6, at human ADAMTS-5 [3], at human MMP13 [4], on human ADAMTS4 (setting [5]) and at rnADAMTS-5 (1-564-6H) was greater than 100 nM in each case.

As to `COc1cc(F)cc(N2CCN(C(=O)CCC3(C)NC(=O)NC3=O)CC2)c1` (centres unmarked) [Cpd 12, 5-[3-[4-(3-fluoro-5-methoxy-phenyl)piperazin-1-yl]-3-oxo-propyl]-5-methyl-imidazolidine-2,4-dione], the concentration for half-maximal inhibition (IC50) at human TACE, on human ADAMTS6, on human ADAMTS-5 [3], at human MMP13 [4] and on rnADAMTS-5 (1-564-6H) was greater than 100 nM throughout.

As for `COc1cc(Cl)cc(N2CCN(C(=O)CCC3(C)NC(=O)NC3=O)CC2)c1` (centres unmarked) [Cpd 13, 5-[3-[4-(3-chloro-5-methoxy-phenyl)piperazin-1-yl]-3-oxo-propyl]-5-methyl-imidazolidine-2,4-dione], the IC50 was greater than 100 nM against human TACE; 25 to 50 nM at human ADAMTS6; greater than 100 nM on human ADAMTS-5 [3]; greater than 100 nM on human MMP13 [4]; greater than 100 nM at rnADAMTS-5 (1-564-6H).

As to `CCOc1cccc(N2CCN(C(=O)CCC3(C)NC(=O)NC3=O)CC2)c1` (centres unmarked) [Cpd 16, 5-[3-[4-(3-ethoxyphenyl)piperazin-1l-yl]-3-oxo-propyl]-5-methyl-imidazolidine-2,4-dione], the IC50 at human ADAMTS6 and at human ADAMTS-5 [3] was greater than 100 nM each time.

Take `COc1cc(N2CCN(C(=O)CCC3(C)NC(=O)NC3=O)C[C@@H]2C)cc(Cl)c1F` (some centres unmarked) [Cpd 53, 5-[3-[(3 S)-4-(3-chloro-4-fluoro-5-methoxy-phenyl)-3-methyl-piperazin-1l-yl]-3-oxo-propyl]-5-methyl-imidazolidine-2,4-dione]: the IC50 was greater than 100 nM against human TACE; 0.001 to 25 nM on human ADAMTS6; greater than 100 nM on human MMP14; greater than 100 nM at human MMP13 [1]; greater than 100 nM at human MMP13 [4]; 50 to 100 nM on human ADAMTS-5 [2]. The IC50 on human ADAMTS4 (setting [5]) and at rnADAMTS-5 (1-564-6H) was greater than 100 nM throughout.

On to `COc1cc(N2CCN(C(=O)[C@@H](C)C[C@@]3(c4ccccn4)NC(=O)NC3=O)CC2)cc(F)c1F` [Cpd 54, (5 S)-5-[(2S)-3-[4-(3,4-difluoro-5-methoxy-phenyl)piperazin-1-yl]-2-methyl-3-oxo-propyl]-5-(2-pyridyl)imidazolidine-2,4-dione], for which the IC50 against human TACE was greater than 100 nM; on human ADAMTS6, 0.001 to 25 nM; on human MMP14, greater than 100 nM; at human MMP13 [1] it was greater than 100 nM; at human ADAMTS-5 [2], 0.001 to 25 nM; against human ADAMTS4, 25 to 50 nM. The IC50 at rnADAMTS-5 (1-564-6H) fell in the range of 0.001 to 25 nM.

In the case of `COc1cc(N2CCN(C(=O)[C@@H](CO)C[C@@]3(C)NC(=O)NC3=O)CC2)cc(F)c1F` [Cpd 56, (5R)-5-[(2R)-3-[4-(3,4-difluoro-5-methoxy-phenyl)piperazin-1-yl]-2-(hydroxymethyl)-3-oxo-propyl]-5-methyl-imidazolidine-2,4-dione], the IC50 was greater than 100 nM against human TACE; 0.001 to 25 nM on human ADAMTS6; greater than 100 nM on human MMP14; greater than 100 nM on human MMP13 [1]; 25 to 50 nM on human ADAMTS-5 [2]; 25 to 50 nM against human ADAMTS4. For the same compound, on rnADAMTS-5 (1-564-6H), the IC50 fell in the range of 25 to 50 nM.

On to `COC[C@]1(C[C@H](C)C(=O)N2CCN(c3cc(F)c(F)c(OC)c3)CC2)NC(=O)NC1=O` [Cpd 59, (5 S)-5-[(2S)-3-[4-(3,4-difluoro-5-methoxy-phenyl)piperazin-1-yl]-2-methyl-3-oxo-propyl]-5-(methoxymethyl)imidazolidine-2,4-dione], for which the IC50 is greater than 100 nM against human TACE; 0.001 to 25 nM at human ADAMTS6; greater than 100 nM at human MMP14; greater than 100 nM on human MMP13 [1]; 0.001 to 25 nM on human ADAMTS-5 [2]; 25 to 50 nM against human ADAMTS4. At rnADAMTS-5 (1-564-6H), the IC50 is 0.001 to 25 nM.

For the compound `C[C@H]1CN(C(=O)CC[C@@]2(C)NC(=O)NC2=O)CCN1c1ccc(Cl)c(OC(F)(F)F)c1` [Cpd 86, (5R)-5-[3-[(3S)-4-[4-chloro-3-(trifluoromethoxy)phenyl]-3-methyl-piperazin-1-yl]-3-oxo-propyl]-5-methyl-imidazolidine-2,4-dione], the IC50 is greater than 100 nM against human TACE; 0.001 to 25 nM on human ADAMTS6; greater than 100 nM on human MMP14; greater than 100 nM on human MMP13 [1]; greater than 100 nM on human ADAMTS-5 [2]; greater than 100 nM at human ADAMTS4 (setting [5]). For the same compound, the IC50 at rnADAMTS-5 (1-564-6H) was greater than 100 nM.

For the origin of these results see US10829478B2, “5-[3-[piperazin-1-yl]-3-oxo-propyl]-imidazolidine-2,4-dione derivatives as ADAMTS 4 and 5 inhibitors for treating e.g. osteoarthritis” (Galapagos NV, priority 2016, dated 2020).
